According to PubChem BioAssay (NCI):
≈ marks a conversion by molar mass, not a printed value.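 These data come from cells grown in 96-well plates and exposed to compound for 48 hours at five concentrations. Here, GI50 denotes the concentration required for 50% inhibition of growth. TGI marks complete inhibition of growth.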 Peptide text beside a SMILES is read from it. * marks the point of attachment. Boc = CC(C)(C)OC(=O)*

Legend:
Assay in all cases: DTP human tumour cell line panel, 48 h; in the data active = GI50 below about 0.43 µM; inactive = the rest
[1] = tested on: 786-0 renal
[2] = tested on: A498 renal
[3] = tested on: A549 NSCLC
[4] = tested on: ACHN renal
[5] = tested on: CAKI-1 renal
[6] = tested on: CCRF-CEM leukemia
[7] = tested on: COLO 205 colon
[8] = tested on: DU-145 prostate
[9] = tested on: HCC-2998 colon
[10] = tested on: HCT-116 colon
[11] = tested on: HCT-15 colon
[12] = tested on: HL-60(TB) leukemia
[13] = tested on: HOP-62 NSCLC
[14] = tested on: HOP-92 NSCLC
[15] = tested on: HS 578T breast
[16] = tested on: HT29 colon
[17] = tested on: K-562 leukemia
[18] = tested on: KM12 colon
[19] = tested on: LOX IMVI melanoma
[20] = tested on: M14 melanoma
[21] = tested on: MCF7 breast
[22] = tested on: MDA-MB-231 breast
[23] = tested on: MDA-MB-435
[24] = tested on: MOLT-4 leukemia
[25] = tested on: NCI-H226 lung
[26] = tested on: NCI-H23 lung
[27] = tested on: NCI/ADR-RES ovarian
[28] = tested on: OVCAR-3 ovarian
[29] = tested on: OVCAR-4 ovarian
[30] = tested on: OVCAR-5 ovarian
[31] = tested on: OVCAR-8 ovarian
[32] = tested on: PC-3 prostate
[33] = tested on: RPMI-8226 leukemia
[34] = tested on: RXF 393 renal
[35] = tested on: SF-268 CNS
[36] = tested on: SF-295 CNS
[37] = tested on: SF-539 CNS
[38] = tested on: SK-MEL-2 melanoma
[39] = tested on: SK-MEL-28 melanoma
[40] = tested on: SK-OV-3 ovarian
[41] = tested on: SN12C renal
[42] = tested on: SNB-19 CNS
[43] = tested on: SNB-75 CNS
[44] = tested on: SR leukemia
[45] = tested on: SW-620 colon
[46] = tested on: T-47D breast
[47] = tested on: TK-10 renal
[48] = tested on: U251 CNS
[49] = tested on: UACC-257 melanoma
[50] = tested on: UACC-62 melanoma
[51] = tested on: UO-31 renal
[52] = tested on: IGROV1 ovarian
[53] = tested on: MALME-3M melanoma
[54] = tested on: NCI-H460 lung
[55] = tested on: NCI-H522 lung
[56] = tested on: SK-MEL-5 melanoma

COc1cc2c(c(OC)c1OC)C(=O)[C@H]1OC(=O)N[C@@H]21
> 100 µM: TGI [1] | TGI [2] | TGI [3] | TGI [4] | TGI [5] | TGI [6] | TGI [7] | TGI [8] | TGI [9] | TGI [10] | TGI [11] | TGI [12] | TGI [13] | TGI [14] | TGI [15] | TGI [16] | TGI [17] | TGI [18] | TGI [19] | TGI [20] | TGI [21] | TGI [22] | TGI [23] | TGI [24] | TGI [25] | TGI [26] | TGI [27] | TGI [28] | TGI [29] | TGI [30] | TGI [31] | TGI [32] | TGI [33] | TGI [34] | TGI [35] | TGI [36] | TGI [37] | TGI [38] | TGI [39] | TGI [40] | TGI [41] | TGI [42] | TGI [43] | TGI [44] | TGI [45] | TGI [46] | TGI [47] | TGI [48] | TGI [49] | TGI [50] | TGI [51]

CC(NC(=O)C(NC(=O)OC(C)(C)C)C(C)C)C(=O)N1CCCC1C(=O)O (stereo not drawn) (Boc-Val-Ala-Pro-OH; configuration not given here)
inactive: GI50 [15] 38.1 µg/mL (≈ 98.8 µM) | GI50 [43] 0.0101 µg/mL | GI50 [50] 36.2 µg/mL
0.09 µg/mL: TGI [43]

C/C1=C\CC[C@@](C)(O)[C@@H]2CC3[C@@H](OC(=O)C34CC4)[C@@H](O2)[C@H](C)CCC1 (some centres not stated)
30.2 µM: TGI [30]
58 µM: TGI [11]
24.7 µM: TGI [54]
24.1 µM: TGI [52]
39.3 µM: TGI [53]
56.4 µM: TGI [50]
active: GI50 [21] 0.238 µM
77.6 µM: TGI [3]
62.2 µM: TGI [18]
30.1 µM: TGI [10]
44.6 µM: TGI [32]
28.5 µM: TGI [55]
63.6 µM: TGI [7]
43.5 µM: TGI [22] | TGI [41]
29.9 µM: TGI [51]
25.8 µM: TGI [19]
34 µM: TGI [27]
30.7 µM: TGI [56]
inactive: GI50 [1] 16.2 µM | GI50 [3] 24.5 µM | GI50 [4] 16.9 µM | GI50 [5] 18 µM | GI50 [6] 3.95 µM | GI50 [7] 24.2 µM | GI50 [9] 14.7 µM | GI50 [10] 16.5 µM | GI50 [11] 23.7 µM | GI50 [12] 42.4 µM | GI50 [14] 38.9 µM | GI50 [16] 28.9 µM | GI50 [52] 6.48 µM | GI50 [17] 35.1 µM | GI50 [18] 21.6 µM | GI50 [19] 6.09 µM | GI50 [53] 13.5 µM | GI50 [22] 19.6 µM | GI50 [23] 20.3 µM | GI50 [24] 39.2 µM | GI50 [54] 12 µM | GI50 [55] 12.7 µM | GI50 [27] 17 µM | GI50 [28] 20.1 µM | GI50 [29] 38 µM | GI50 [30] 16.1 µM | GI50 [31] 18.8 µM | GI50 [32] 20.1 µM | GI50 [33] 30.1 µM | GI50 [35] 19.4 µM | GI50 [36] 17.3 µM | GI50 [38] 16.2 µM | GI50 [39] 61.7 µM | GI50 [56] 10.6 µM | GI50 [40] 55 µM | GI50 [41] 20.3 µM | GI50 [42] 58.6 µM | GI50 [43] 41.9 µM | GI50 [44] 19.9 µM | GI50 [45] 35.2 µM | GI50 [46] 47.2 µM | GI50 [48] 19.9 µM | GI50 [49] 20.4 µM | GI50 [50] 21.3 µM | GI50 [51] 15.3 µM
73.3 µM: TGI [35]
29.8 µM: TGI [1]
25.3 µM: TGI [21]
35.1 µM: TGI [4]
38.1 µM: TGI [31]
39.6 µM: TGI [28]
42.7 µM: TGI [48]
44.2 µM: TGI [23]
44.1 µM: TGI [49]
> 100 µM: TGI [6] | TGI [12] | TGI [14] | TGI [16] | TGI [17] | TGI [24] | TGI [29] | TGI [33] | TGI [39] | TGI [40] | TGI [42] | TGI [43] | TGI [44] | TGI [45] | TGI [46]
27.8 µM: TGI [9]
34.4 µM: TGI [5] | TGI [36] | TGI [38]
